This passage reports EC50 results from ChEMBL document CHEMBL4680283, “Evaluation of 1,1-cyclopropylidene as a thioether isostere in the 4-thio-thienopyrimidine (TTP) series of antimalarials” (Bioorg Med Chem, 2020).

Where only a bound is given, the exact number is not on record here.

The test system of the test is Plasmodium falciparum. Description: Antimalarial activity against chloroquine-sensitive Plasmodium falciparum 3D7 MRA-102 infected in human erythrocytes assessed as reduction in parasite growth incubated for 72 hrs by SYBR green dye based fluorescence assay. The note with it: 3D7 MRA-102, Erythrocyte. The class given is functional, organism-based.
On to `Cc1csc(C(=O)c2ncnc3sccc23)n1`, for which the 50% effective concentration (EC50) is 4.08 µM.
As to `Cc1csc(Sc2ncnc3sccc23)n1`, the concentration for a half-maximal effect (EC50) was 0.037 µM.
Under `CCOC(=O)/C=C(/c1nc(C)cs1)c1ncnc2sccc12` stands 6.97 µM; under `Cc1csc(C(C)(O)c2ncnc3sccc23)n1` (configuration not stated), greater than 23 µM.
Turning to `Cn1c(C2(c3ncnc4sccc34)CC2)nc2ccccc21`, the 50% effective concentration (EC50) is greater than 23 µM.
The result for `Cc1csc(C2(c3ncnc4sccc34)CC2)n1` reads greater than 23 µM.
Take `Cn1c(Sc2ncnc3sccc23)nc2ccccc21`: the EC50 is 0.191 µM.
